# Square brackets hold non-standard residues; d marks the D form. Peptide text beside a SMILES is read from it. * marks the point of attachment. Trp(1-Me) = Cn1cc(C[C@H](N)C(=O)O)c2ccccc21; Bta = N[C@@H](Cc1csc2ccccc12)C(=O)O; Igl = N[C@H](C(=O)O)C1Cc2ccccc2C1; Tic = O=C(O)[C@@H]1Cc2ccccc2CN1; Chg = N[C@H](C(=O)O)C1CCCCC1; X4 = c1cc(CCN*)c2cc[nH]c2c1; Pip = O=C(O)[C@@H]1CCCCN1; Morpholide = C1CN(*)CCO1; Nva = CCC[C@H](N)C(=O)O; Abu = CC[C@H](N)C(=O)O; βAla = NCCC(=O)O
# Biological target: DRB5*0101 (Homo sapiens, UniProt P01903+Q30154)
# Assay: not given
# Conditions: DR2 haplotype; cited from earlier work
row,Compound,binding affinity to DRB5*0101 molecules
1,"MBP (84-102): immunodominant myelin basic protein (84-102) peptide (DPGSRPHLIRLFSRDAPGR; Myelin basic protein; UniProt P02686 84-102, looked up, fragment)",bind with high affinity

# Test system: T cell proliferation
# Assay: not given
# Conditions: cited from earlier work
row,Compound,suppression of T cell proliferation in response to protein antigens
1,a(Cha)AAAKTAAAAa-NH2,did not supress T cell proliferation

# Test system: DR molecules
# Assay: not given
# Conditions: cited from earlier work
row,Compound,binding to DR molecules
1,a(Cha)AAAKTAAAAa-NH2,binds DR molecules

# Biological target: T1, MHC DR2 (DRB1*1501/DRA*0101) (Homo sapiens, UniProt P01903+P01911)
# T1 construct: endogenous in cells; host or cells: EBV homozygous (B lymphoblastoid) cell lines
# Assay: HLA II Binding Assay (competition with biotinylated reference peptide)
# Conditions: purified HLA-DR, biotinylated reference compound for DRB1*1501, 37° C. 24 h to 72 h; read-out: Inhibition of peptide binding IC50 (against MHC DR2 (DRB1*1501/DRA*0101))
# Description: EBV homozygous cell lines are used as sources of human HLA class II molecules. […] The supernatant from lysed cells after centrifugation (100,000 g for 1 h) is applied to Sepharose 4B and protein A-Sepharose 4B columns and then to the specific antibody column. […] Fractions are immediately neutralized to pH 7 with 2 mM Tris-HCl (pH 6.8) and extensively dialyzed against 1 mM n-dodecyl β-D-maltoside, 150 mM NaCl, 10 mM phosphate (pH 7) buffer.
# Samples (100 μl per well) are incubated in 96-wells polypropylene plates at 37° C. for 24 h to 72 h. After neutralization with 50 μl of 450 mM Tris HCl pH 7.5, 0.003% thimerosal, 0.3% BSA, 1 mM n-dodecyl β-D-maltoside buffer, samples are applied to 96-well maxisorp ELISA plates previously coated with 10 μg/ml L243 Mab and saturated with 100 mM Tris HCl pH=7.5, 0.3% BSA, and 0.003% thimerosal buffer. Samples are allowed to bind to the antibody-coated plates for 2 h at room temperature. Bound biotinylated compound is detected by incubating streptavidin-alkaline phosphatase conjugate, and after washings, by the addition of 4-methylumbelliferyl phosphate substrate. […] Maximal binding is determined by incubating the biotinylated peptide with the MHC class II molecule in the absence of competitor. Binding specificity is assessed by adding an excess of non-biotinylated peptide.
row,IC50 [nM],Compound
1,10 to 100,CNC(=O)[C@H](Cc1ccccc1)NC(=O)[C@@H]1Cc2ccccc2CN1C(=O)[C@H](CCCNC(=N)N)NC(=O)[C@@H](NC(=O)[C@@H](NC(C)=O)C(C)C)C1CCCCC1 [AcV(Chg)R(Tic)F-CONHMe] (Ac-V[Chg]R[Tic]F-NHMe)
2,1 to 10,CC(C)[C@H](NC(=O)CCN)C(=O)N[C@H](C(=O)N[C@@H](CCCNC(=N)N)C(=O)N1Cc2ccccc2C[C@H]1C(=O)N[C@@H](Cc1ccccc1)C(N)=O)C1CCCCC1 [(NH2-Beta Ala)V(Chg)R(Tic)F] (H-[βAla]V[Chg]R[Tic]F-NH2)
3,10 to 100,CC(=O)N[C@H](C(=O)N[C@H](C(=O)N[C@@H](CCCNC(=N)N)C(=O)N1CCCC[C@H]1C(=O)N[C@@H](Cc1ccccc1)C(N)=O)C1CCCCC1)C(C)C [AcV(Chg)R(homo Pro)F] (Ac-V[Chg]R[Pip]F-NH2)
4,1 to 10,CC(=O)N[C@H](C(=O)N[C@H](C(=O)N[C@@H](CCCNC(=N)N)C(=O)N1Cc2ccccc2C[C@H]1C(=O)N[C@@H](Cc1c[nH]c2ccccc12)C(N)=O)C1CCCCC1)C(C)C [AcV(Chg)R(Tic)(Trp)] (Ac-V[Chg]R[Tic]W-NH2)
5,100 to 1000,CC(C)[C@H](NC(=O)CCN)C(=O)N[C@H](C(=O)N[C@@H](Cc1ccccc1)C(=O)N[C@@H](Cc1ccccc1)C(=O)N[C@@H](Cc1ccccc1)C(N)=O)C1CCCCC1 [(NH2-Beta Ala)V(Chg)FFF] (H-[βAla]V[Chg]FFF-NH2)
6,10 to 100,CC(C)[C@H](NC(=O)[C@@H](N)Cc1csc2ccccc12)C(=O)N[C@H](C(=O)N[C@@H](CCCNC(=N)N)C(=O)N1Cc2ccccc2C[C@H]1C(=O)N[C@@H](Cc1ccccc1)C(N)=O)C1CCCCC1 [(NH2-BTA)V(Chg)R(Tic)F] (H-[Bta]V[Chg]R[Tic]F-NH2)
7,1 to 10,CC[C@H](N)C(=O)N[C@H](C(=O)N[C@H](C(=O)N[C@@H](CCCNC(=N)N)C(=O)N1Cc2ccccc2C[C@H]1C(=O)N[C@@H](Cc1ccccc1)C(N)=O)C1CCCCC1)C(C)C [(NH2-Abu)V(Chg)R(Tic)F] (H-[Abu]V[Chg]R[Tic]F-NH2)
8,10 to 100,CC(=O)N[C@H](C(=O)N[C@H](C(=O)N[C@@H](CCCNC(=N)N)C(=O)N1Cc2ccccc2C[C@H]1C(=O)N[C@@H](Cc1ccccc1)C(N)=O)C1Cc2ccccc2C1)C(C)C [AcV(Indgly)R(Tic)F] (Ac-V[Igl]R[Tic]F-NH2)
9,10 to 100,CC(=O)N[C@H](C(=O)N[C@H](C(=O)N[C@@H](Cc1c[nH]cn1)C(=O)N1Cc2ccccc2C[C@H]1C(=O)N[C@@H](Cc1ccccc1)C(N)=O)C1CCCCC1)C(C)C [AcV(Chg)H(Tic)F] (Ac-V[Chg]H[Tic]F-NH2)
10,100 to 1000,CC(=O)N[C@H](C(=O)N[C@@H](CCCNC(=N)N)C(=O)N1Cc2ccccc2C[C@H]1C(=O)N[C@@H](Cc1cn(C)c2ccccc12)C(N)=O)C1CCCCC1 [Ac(Chg)R(Tic)(1-Me-Trp)] (Ac-[Chg]R[Tic][Trp(1-Me)]-NH2)
11,1 to 10,CCC[C@H](NC(C)=O)C(=O)N[C@H](C(=O)N[C@@H](CCCNC(=N)N)C(=O)N1Cc2ccccc2C[C@H]1C(=O)N[C@@H](Cc1ccccc1)C(N)=O)C1CCCCC1 [Ac(nor-V)(Chg)R(Tic)F] (Ac-[Nva][Chg]R[Tic]F-NH2)
12,10 to 100,CC(=O)N[C@H](C(=O)N[C@H](C(=O)N[C@@H](CCCNC(=N)N)C(=O)N1Cc2ccccc2C[C@H]1C(=O)N[C@@H](Cc1ccccc1)C(=O)N1CCOCC1)C1Cc2ccccc2C1)C(C)C [AcV(Indgly)R(Tic)F-CO(morpholine)] (Ac-V[Igl]R[Tic]F-Morpholide)
13,100 to 1000,CC(=O)N[C@H](C(=O)N[C@H](C(=O)N[C@@H](CCCNC(=N)N)C(=O)N1Cc2ccccc2C[C@H]1C(=O)NCCc1cccc2[nH]ccc12)C1CCCCC1)C(C)C [AcV(Chg)R(Tic)(4-ethylaminoindole)] (Ac-V[Chg]R[Tic]-X4)

# Test system: animal models of autoimmune disease
# Assay: not given
# Conditions: in vivo; cited from earlier work
row,Compound,activity in animal models of autoimmune disease
1,a(Cha)AAAKTAAAAa-NH2,did not show activity

# Biological target: DRB1*1501 (Homo sapiens, UniProt P01903+P01911)
# Assay: not given
# Conditions: DR2 haplotype; cited from earlier work
row,Compound,binding affinity to DRB1*1501 molecules
1,"MBP (84-102): immunodominant myelin basic protein (84-102) peptide (DPGSRPHLIRLFSRDAPGR; Myelin basic protein; UniProt P02686 84-102, looked up, fragment)",bind with high affinity

# — patent US20110217324A1, “INHIBITORS OF ANTIGEN PRESENTATION BY MHC CLASS II MOLECULES AND METHODS OF USE THEREOF” (priority 2007, published 2011)
